In PMC6968685 (Journal of Enzyme Inhibition and Medicinal Chemistry, 2020):

How the values were obtained:
[1] = test system: P. falciparum CQ-sensitive strain 3D7; experiment: In vitro antiplasmodial activity, SYBR Green I fluorescence-based method, strain 3D7; type: cell-based; conditions: for IC50: Plasmodium falciparum, chloroquine-sensitive strain 3D7, 48 h incubation, read-out: P. falciparum strains IC50 values, 3D7; for Selectivity index HepG2/3D7: SI = CC50 HepG2 / IC50 P. falciparum 3D7
Experimental: (§1) The in vitro antiplasmodial activities were tested over concentrations ranging from […] against culture-adapted P. falciparum reference strains 3D7 and W2. […] The parasites were cultivated in RPMI medium (Sigma-Aldrich, Lyon, France) supplemented with 0.5% Albumax I (Life Technologies Corporation, Paisley, UK), hypoxanthine (Sigma-Aldrich), and gentamicin (Sigma-Aldrich) with human erythrocytes and were incubated at 37 °C in a candle jar, as described previously[43] .The P. falciparum drug susceptibility test was carried out in 96-well flat-bottom sterile plates in a final volume of 250 µl. After 48 h incubation period with the drugs, quantities of DNA in treated and control cultures of parasites in human erythrocytes were quantified using the SYBR Green I (Sigma-Aldrich) fluorescence-based method[44]^,[45]. Briefly, after incubation, plates were frozen at −20 °C until use. Plates were then thawed for 2 h at room temperature, and 100 µl of each homogenised culture was transferred to a well of a 96-well flat-bottom sterile black plate (Nunc, Inc., Rochester, NY) that contained 100 µl of the SYBR Green I lysis buffer (2xSYBR Green, 20 mM Tris base pH 7.5, 5 mM EDTA, 0.008% w/v saponin, 0.08% w/v Triton X-100). […] Plates were incubated for 1 h at room temperature and then read on a fluorescence plate reader (Tecan, Grödig, Austria) using excitation and emission wavelengths of 485 and 535 nm, respectively. IC50 values were calculated by non-linear regression analysis of data from dose-response curves, using TableCurve 2D version 5.0 software (Systat Software, San Jose, CA). IC50 values are reported as means calculated from three independent experiments.

[2] = test system: L. donovani (MHOM/IN/00/DEVI) promastigotes; experiment: In vitro antileishmanial activity, MTT assay on promastigotes; type: cell-based; conditions: Leishmania donovani, 72 h incubation, ≥10 = no activity noted at the highest concentration tested
Experimental: L. donovani (MHOM/IN/00/DEVI) used in this study was provided by the CNR Leishmania (Montpellier, France). The effects of the tested compounds on the growth of L. donovani (MHOM/IN/00/DEVI) promastigotes were assessed by MTT assay. Briefly, promastigotes in log-phase in Schneider’s medium supplemented with 20% foetal calf serum (FCS), 2 mM L-glutamine and antibiotics (100 U/ml penicillin and 100 µg/ml streptomycin), were incubated at an average density of 10^6 parasites/ml in sterile 96-well plates with various concentrations of compounds dissolved in DMSO (final concentration less than 0.5% v/v), in duplicate. Appropriate controls treated with DMSO and amphotericin B (reference drug purchased from Sigma-Aldrich) were added to each set of experiments. After 72 h incubation period at 27 °C, parasite metabolic activity was determined. Each well was microscopically examined for precipitate formation. To each well was added 20 µl of 5 mg/ml MTT [3–(4,5-dimethylthiazol-2-yl)-2,5-diphenyltetrazolium bromide)] solution followed by 4 h incubation time. The enzyme reaction was stopped by addition of 100 µl of 50% isopropanol/10% sodium dodecyl sulfate. Plates were vigorously shaken (300 rpm) for 10 min, and the absorbance was measured at 570 nm in a BIO-TEK ELx808 Absorbance Microplate Reader. […] IC50 of the parasite’s growth (half maximal inhibitory concentration or IC50 values) were then calculated from the obtained experimental results using a previously described regression programme.

[3] = Cytotoxicity evaluation, MTT; type: cell-based, human; conditions: human
Experimental: These cells are a commonly used human hepatocarcinoma-derived cell line that has characteristics similar to those of primary hepatocytes. These cells express many hepatocyte-specific metabolic enzymes, thus enabling the cytotoxicity of tested product metabolites to be evaluated. […] Duplicate assays were performed for each sample. Each well was microscopically examined for precipitate formation before the medium was aspirated from the wells. After aspiration, 100 µl of MTT solution (0.5 mg/ml in medium without FCS) were then added to each well. […] The MTT solution was removed, and DMSO (100 µl) was added to dissolve the resulting blue formazan crystals. Plates were shaken vigorously (300 rpm) for 5 min. The absorbance was measured at 570 nm with 630 nm as reference wavelength in a BIO-TEK ELx808 Absorbance Microplate Reader. DMSO was used as blank and doxorubicin (Sigma Aldrich) as positive control. Cell viability was calculated as percentage of control (cells incubated without compound). The CC50 was determined from the dose-response curve using the TableCurve 2D version 5.0 software (Systat Software, San Jose, CA)

[4] = test system: T. brucei brucei AnTat 1.9; experiment: In vitro antitrypanosomal activity, Alamar Blue assay; type: cell-based; conditions: for Selectivity index HepG2/Tryp.: SI = CC50 HepG2 / IC50 Trypanosoma brucei brucei; for IC50: Trypanosoma brucei, slender bloodstream trypomastigotes, AnTat 1.9 strain, read-out: Trypanosoma brucei brucei IC50 values, Trypanos Antat 1.9
Experimental: The effects of the tested compounds on the growth of T. brucei brucei were assessed using an Alamar Blue® assay described by Räz et al.[49] T. brucei brucei AnTat 1.9 (IMTA, Antwerpen, Belgium) was cultured in MEM with Earle’s salts, supplemented according to the protocol of Baltz et al.[50] with the following modifications: 0.5 mM mercaptoethanol (Sigma Aldrich), 1.5 mM L-cysteine (Sigma Aldrich), 0.05 mM bathocuproine sulphate (Sigma Aldrich), and 20% heat-inactivated horse serum (Gibco, France) at 37 °C and 5% CO2. Samples were incubated at an average density of 2000 parasites/well in sterile 96-wells plates (Fisher, France) with various concentrations of compounds dissolved in 0.9% NaCl. All doses were tested in duplicate. Appropriate controls treated with solvents 0.9% NaCl or DMSO or with suramin, pentamidine, eflornithine, and fexinidazole (reference drugs purchased from Sigma Aldrich and Fluorochem, UK) were added to each set of experiments. After 69 h incubation period at 37 °C, 10 µl of the viability marker Alamar Blue (Fisher) was added to each well, and the plates were incubated for 5 h. The plates were read in a PerkinElmer ENSPIRE (Germany) microplate reader using an excitation wavelength of 530 nm and an emission wavelength of 590 nm. […] IC50 values were calculated using a nonlinear regression analysis of dose-response curves performed using GraphPad Prism software (La Jolla, CA). IC50 values were calculated from three independent experiments.

[5] = test system: P. falciparum CQ-resistant strain W2; experiment: In vitro antiplasmodial activity, SYBR Green I fluorescence-based method, strain W2; type: cell-based; conditions: for IC50: Plasmodium falciparum, chloroquine-resistant strain W2, 48 h incubation, read-out: P. falciparum strains IC50 values, W2; for Selectivity index HepG2/W2: SI = CC50 HepG2 / IC50 P. falciparum W2
Experimental: as §1

Compound | IC50 [1] [nM] | Selectivity index HepG2/3D7 [1] | IC50 [2] [µM] | CC50 at 72 h [3] [µM] | Selectivity index HepG2/Tryp. [4] | IC50 [4] [nM] | IC50 [5] [µM] | Selectivity index HepG2/W2 [5]
COc1ccc2c(-c3ccc(CNCCN(C)C)cc3)nc(-c3ccc(CNCCN(C)C)cc3)nc2c1 [Compound 3o, 7-Methoxy-2,4-bis{4-[(2-dimethylaminoethyl)aminomethyl]phenyl}quinazoline] | 610 ± 30 | 1.87 | ≥ 10 | 1.14 ± 0.4 | 1.52 | 750 ± 121 | 0.99 ± 0.09 | 1.15
CN1CCN(CCCNCc2ccc(-c3cc4ccccc4c(-c4ccc(CNCCCN5CCN(C)CC5)cc4)n3)cc2)CC1 [Compound 2d, 1,3-Bis{4-[(3–(4-methylpiperazin-1-yl)propyl)aminomethyl]phenyl}isoquinoline] | 5770 ± 670 | 2.57 | ≥ 10 | 14.8 ± 1.1 | 11.60 | 1280 ± 122 | 5.46 ± 0.44 | 2.72
COc1ccc2nc(-c3ccc(CNCCCN(C)C)cc3)cc(-c3ccc(CNCCCN(C)C)cc3)c2c1 [Compound 1j, 6-Methoxy-2,4-bis{4-[(3-dimethylaminopropyl)aminomethyl]phenyl}quinoline] | 2650 ± 180 | 0.94 | ≥ 10 | 2.5 ± 0.2 | 4.03 | 620 ± 70 | 4.21 ± 0.31 | 0.59
COc1ccc2c(-c3ccc(CNCCCCN4CCN(C)CC4)cc3)nc(-c3ccc(CNCCCCN4CCN(C)CC4)cc3)cc2c1 [Compound 2k, 6-Methoxy-1,3-bis{4-[(4–(4-methylpiperazin-1-yl)butyl)aminomethyl]phenyl}isoquinoline] | 8910 ± 870 | 0.73 | ≥ 10 | 6.48 ± 0.6 | 6.54 | 990 ± 122 | 5.96 ± 0.54 | 1.09
COc1ccc2nc(-c3ccc(CNCCCN4CCN(C)CC4)cc3)cc(-c3ccc(CNCCCN4CCN(C)CC4)cc3)c2c1 [Compound 1l, 6-Methoxy-2,4-bis{4-[(3–(4-methylpiperazin-1-yl)propyl)aminomethyl]phenyl}quinoline] | 1800 ± 200 | 0.57 | ≥ 10 | 1.02 ± 0.1 | 0.66 | 1540 ± 164 | 4.51 ± 0.71 | 0.23
COc1ccc2c(-c3ccc(CNCCCN4CCN(C)CC4)cc3)cc(-c3ccc(CNCCCN4CCN(C)CC4)cc3)nc2c1 [Compound 1p, 7-Methoxy-2,4-bis{4-[(3–(4-methylpiperazin-1-yl)propyl)aminomethyl]phenyl}quinoline] | 4340 ± 500 | 1.48 | ≥ 10 | 6.44 ± 0.6 | 6.37 | 1010 ± 135 | 2.73 ± 0.76 | 2.36
CN1CCN(CCCCNCc2ccc(-c3nc(-c4ccc(CNCCCCN5CCN(C)CC5)cc4)c4ccccc4n3)cc2)CC1 [Compound 3d, 2,4-Bis{4-[(4–(4-methylpiperazin-1-yl)butyl)aminomethyl]phenyl}quinazoline] | 2350 ± 488 | 12.22 | ≥ 10 | 28.7 ± 1.9 | 15.44 | 1860 ± 135 | – | –
CN(C)CCCCNCc1ccc(-c2nc(-c3ccc(CNCCCCN(C)C)cc3)c3ccccc3n2)cc1 [Compound 3a, 2,4-Bis{4-[(4-dimethylaminobutyl)aminomethyl]phenyl}quinazoline] | 2150 ± 106 | 1.96 | ≥ 10 | 4.23 ± 0.4 | 4.70 | 900 ± 54 | – | –
CN(C)CCNCc1ccc(-c2nc(-c3ccc(CNCCN(C)C)cc3)c3ccccc3n2)cc1 [Compound 3c, 2,4-Bis{4-[(2-dimethylaminoethyl)aminomethyl]phenyl}quinazoline] | 1060 ± 103 | 14.97 | ≥ 10 | 15.9 ± 1.7 | 10.72 | 1480 ± 178 | – | –
CN1CCN(CCCCNCc2ccc(-c3cc(-c4ccc(CNCCCCN5CCN(C)CC5)cc4)c4ccccc4n3)cc2)CC1 [Compound 1d, 2,4-Bis{4-[(4–(4-methylpiperazin-1-yl)butyl)aminomethyl]phenyl}quinoline] | 690 ± 70 | 11.17 | ≥ 10 | 7.71 ± 0.4 | 6.32 | 1220 ± 121 | – | –
